Experimental data as given in US5498624A, “Selected pyrazolyl derivatives” (Monsanto Company, priority 1995, dated 1996).
Where two headings read alike, the source gives them in different places.

Columns and labels:
[1] = tested on: Pseudocercosporella herpotrichoides var. tritici; test: Wheat True Eyespot In Vitro Assay (WES In Vitro); type: cell-based; parameters: key: 0: no inhibition of mycelial growth; 1: slight inhibition of mycelial growth; 2: moderate inhibition of mycelial growth; 3: strong inhibition of mycelial growth; conditions: 3 days at 19° C.
Description: A) Pathogen/Inoculum Production--A mycelial transfer of Pseudocercosporella herpotrichoides var. tritici is placed onto potato dextrose agar plates and allowed to grow for 40 days at 20 ° C., without light. Five agar discs are taken from the actively growing culture and are placed equidistant, mycelial side down, onto a water agar plate, and incubated at 10 ° C. with 10 hours of fluorescent light per day. After 5 days of incubation, sporulation on the transferred discs begins, and plates are flooded with 3-5 mls sterile deionized water. One-half ml aliquots are taken from the resulting spore suspension and placed on new water agar plates. Spores are spread across plates using a bent glass rod and incubated at 10 ° C. with 10 hour fluorescent light periods per day. In 5-10 days, a lawn of spores is produced and can be "harvested".
B) Compound Preparation and Test Execution--200 μl of 1/4 strength potato dextrose broth is placed in each well of a 96 well microtiter plate. […] The commercial standard used is prochloraz at equivalent rates.
C) Inoculation/Incubation--50 μl of a 1×10^6 spores/ml suspension harvested using the method above is added to each well. The 96 well plates are incubated for 3 days at 19° C. in the dark.
(§1) D) Evaluation--After incubation, each well is visually assessed for growth inhibition on the following 0-3 scale:
(§2) 0=no inhibition of mycelial growth
(§3) 1=slight inhibition of mycelial growth
(§4) 2=moderate inhibition of mycelial growth
(§5) 3=strong inhibition of mycelial growth

Septoria nodorum [2] = test: Wheat Glume Blotch (WGB) In Vitro; type: cell-based; parameters: key: 0: no inhibition of mycelial growth; 1: slight inhibition of mycelial growth; 2: moderate inhibition of mycelial growth; 3: strong inhibition of mycelial growth; conditions: 4-6 days at 25° C.
Description: A) Pathogen/Inoculum Production--The wheat glume blotch fungus, Septoria nodorum, is cultured on yeast/malt agar at 22° C. and 12 hours fluorescent light. Several sterile loops full of mature pycnidia produced on a 7 day old culture plates are added to 30 mls of 1/4 strength potato dextrose broth. After 15 minutes the suspension is stirred, and adjusted to a concentration of 3×10^5 spores/mi.
B) Compound Preparation and Test Execution--200 μl of 1/4 strength potato dextrose broth is placed in each well of a 96 well microtiter plate. […] The commercial standard used is flusilazole, at equivalent rates.
C) Inoculation/Incubation--50 μl of a 3×10^5 spores/ml suspension obtained using the method above is added to each well. The 96-well plate is incubated for 4-6 days at 25° C., 12 hours fluorescent light.
as §1, §2, §3, §4, §5

[3] = tested on: Erysiphe graminis f. sp. tritici; test: Wheat Powdery Mildew Foliar Assay (WPM Prot); type: in vivo
Description: A) Pathogen/Inoculum Production--Leaf material infected with the wheat powdery mildew fungus, Erysiphe graminis f. sp. tritici, is maintained continuously on wheat seedlings, cv. Caldewell.
(B) Host Propagation, (C) Compound Preparation and (D) Compound Application follow as per Example 1.
(E) Inoculation/Incubation--Inoculation of the test plants takes place 24 hours after compound application. Inoculation is accomplished by gently shaking plants previously infected with the Erysiphe graminis f. sp. tritici fungus over the test plants. This process liberates a cloud of spores which effectively and uniformly fall onto the test plants. After inoculation the plants are returned to the environmental conditions under which they were grown.
(F) Evaluation and (G) Data follow as per Example 1. The percent protection values for the compounds of the present invention are as set out in the Table below.

Succinate Dehydrogenase = test: Enzyme Inhibition I-50 (WGB): Succinate Dehydrogenase Assay using Septoria nodorum mitochondria; type: biochemical
Description: Succinate Dehydrogenase Assay using Septoria nodorum mitochondria--Septorianodorum mycelia are prepared from spores via shake culture for 40-48 hours in 3% malt extract at room temperature. The mycelia are harvested by centrifugation and the pellets obtained are stored in the -80° C. freezer until use.
Mitochondria are isolated by a method adapted from White (Biochem. Biophys. Res. Commun. 44 (1971) 1212-19). Fifteen to twenty grams of frozen mycelia are resuspended in a 250 mL medium containing 0.25M sucrose, 5 mM tetrasodium ethylenediamine tetraacetic acid (Na4 EDTA), pH 7.0 containing 1.5 g/liter bovine serum albumin (BSA) and placed in a Bead Beater chamber (BioSpec Products, Bartlesville, Okla.). Zirconium oxide beads (0.5 mm) are added to finish filling the chamber. Four 30s beats separated by 2 rain temperature equilibration periods on ice are used to break the mycelia. The homogenate is centrifuged for 20 min at 3000×g and 4° C. to remove debris. The supernatant is recentrifuged at 20,000×g for 20 min at 4° C. The resulting pellet is resuspended in BSA-free sucrose/EDTA medium (40 mL) using a glass tissue homogenizer and teflon pestle and recentrifuged at 27,000×g for 15 min at 4° C. The pellet is resuspended in BSA-free sucrose/EDTA medium (~3 mL) and used for SDH assays.
The enzyme activity is measured at […] in a solution containing 50 mM potassium phosphate, pH7.2; 1 mM potassium cyanide; 45 μM 2,6-dichlorophenol indophenol (DCPIP) and 17 mM disodium succinate in a final volume of 1 mL with a Perkin-Elmer Lambda 7 ultraviolet-visible spectrophotometer. The test compounds are added as acetone solutions (final concentration of acetone less than or equal to 1%(v/v)). The mitochondrial preparations are used to initiate the reaction. All rates are corrected for succinate-independent dye reduction. Semilog plots of percentage inhibition versus test compound concentration are used to determine inhibition expressed as I50 (μM) which is the concentration required to inhabit the rate of DCPIP reduction by 50%. The commercial fungicide carboxin is used as a standard throughout [I50 (μM)=5.0±2.2; n=52].

Septoria nodorum [4] = test: Wheat Glume Blotch Foliar Assay, protectant (WGB Prot); type: in vivo; conditions: 10 ppm, application two days pre-inoculation
Description: A) Host Propagation--Winter wheat plants, cv. Caldwell, are grown in 5.7 cm^2 pots, three per pot, and maintained in a growth chamber set at 20° C., 80% RH with a 12 hour photoperiod.
B) Compound Preparation--A 1.0% stock solution of each of the compounds of the present invention is first prepared utilizing an appropriate solvent such as acetone, water or DMSO. This stock is then used to prepare the final spray solution which contains the compound at the desired dosage, eg 100 ppm and 20 ppm, acetone at 20% v/v, Tween®20 at .05% w/v, and water at about 80%. Commercial standard used is tebuconazole at equivalent rates.
C) Compound Application, Seedlings are sprayed at the two-leaf stage (GS 12) using a DeVilbiss Model 152 hand operated sprayer set at 15-20 psi. Six ml of the test solution per treatment are applied to three pots. In the protectant assay (EXAMPLE 8), the compound application is made two days pre-inoculation. In the curative assay (EXAMPLE 9), the compound is applied during a brief interruption of the disease incubation period two days post-inoculation.
D) Pathogen Production/Inoculation--The wheat glume blotch fungus, Septoria nodorum, is maintained in the pycnidial state on yeast malt agar (YMA) and transferred weekly by streaking a suspension of conidia obtained from a ten to twelve day old sporulating culture onto fresh YMA plates. The plates are incubated at 20° C. with a 12 hour photoperiod.
Test inoculum is prepared by flooding seven day old culture plates with deionized water amended with Tween®20 (0.1% v/v) and gently scraping the pycnidia to release the extruding masses of conidia. The resulting spore suspension is filtered through two layers of cheese cloth and adjusted to 4×10^6 spores/ml utilizing the Tween®20 solution.
Forty-eight hours after the compound application and prior to inoculation, the test plants are preconditioned for at least one hour in a dark growth chamber set at 20° C. and 100% RH. After the preconditioning period is over, the conidial suspension is applied to run-off using a DiVilbiss hand operated sprayer. The plants are then returned to the preconditioning chamber and incubated at the same settings for 96 hours. Light is supplied to the plants during the last twelve hours of incubation. At the end of the 96 hour period, the plants are returned to the environmental conditions under which they were grown.
E) Test Evaluation--Eight to ten days after removal from the high humidity chamber, or twelve to fourteen days after inoculation, treatments are evaluated by visually estimating the percentage of the leaf area (on the first leaf) covered with lesions. Three ratings are made on each pot which constitutes a replicate. Each replicate then receives a numerical mean by averaging the three values. Percent disease, as well as percent control values are calculated. The percent control values obtained from these assays for the compounds of the present invention are as set out in the Table below.

[5] = tested on: Botrytis cinerea Mitochondria; conditions: 1 μM concentration; cited from earlier work

For CCO[C@H]1CC[C@H](c2ccccc2NC(=O)c2cn(C)nc2C(F)F)CC1 [Number 7, 1H-pyrazole-4-carboxamide, 3-(difluoromethyl)-N-[2-(4-ethoxycyclohexyl)phenyl]-1-methyl-,trans-], the “WES In vitro growth inhibition 0-3 scale” value ([1]; 0.1 ppm) was 0, the “WES In vitro growth inhibition 0-3 scale” value ([1]; 0.5 ppm) was 0 and the “WES In vitro growth inhibition 0-3 scale” value ([1]; 5.0 ppm) was 1. The “WGB In Vitro growth inhibition 0-3 scale” value (Septoria nodorum [2]; 0.1 ppm) was 0, the “WGB In Vitro growth inhibition 0-3 scale” value (Septoria nodorum [2]; 0.5 ppm) was 0 and the “WGB In Vitro growth inhibition 0-3 scale” value (Septoria nodorum [2]; 5.0 ppm) was 1. The “WPM Prot percent disease control” value ([3]; 500 ppm foliar protectant) was 96% and the IC50 (Succinate Dehydrogenase; DCPIP reduction, read-out: WGB enzyme I-50) was 170 nM.

For Cn1cc(C(=O)Nc2ccccc2C2CCC(C(F)(F)F)CC2)c(C(F)F)n1 (stereo not drawn) [Number 8], the “WGB Prot percent control” value (Septoria nodorum [4]) was 85% and the “WPM Prot percent disease control” value ([3]; 10 ppm foliar protectant) was 91%.

In the case of CC1=C(C(=O)Nc2ccccc2)SCCO1 [carboxin, reference compound], the respiratory inhibition [5] is listed as 68% and the IC50 (Succinate Dehydrogenase; standard throughout, n=52, read-out: I50) is listed as 5000 ± 2200 nM.
